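Dose response: 5 concentrations. Exposure: 48 h. Format: 96-well plates. Endpoint: linear interpolation; highest concentration if not reached. The concentration for 50% growth inhibition is given as GI50. At the TGI there is no net growth.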
Assays:
Assay in all cases: growth of human tumour cells (NCI), 48 h
A549 NSCLC = system: A549 NSCLC
HCT-15 colon = system: HCT-15 colon
K-562 leukemia = system: K-562 leukemia
KM12 colon = system: KM12 colon
M14 melanoma = system: M14 melanoma
MOLT-4 leukemia = system: MOLT-4 leukemia
NCI/ADR-RES ovarian = system: NCI/ADR-RES ovarian
SR leukemia = system: SR leukemia
SW-620 colon = system: SW-620 colon
UACC-257 melanoma = system: UACC-257 melanoma

SMILES | GI50 (A549 NSCLC) [µM] | TGI (A549 NSCLC) [µM] | GI50 (HCT-15 colon) [µM] | TGI (HCT-15 colon) [µM] | GI50 (K-562 leukemia) [µM] | TGI (K-562 leukemia) [µM] | GI50 (KM12 colon) [µM] | TGI (KM12 colon) [µM] | GI50 (M14 melanoma) [µM] | TGI (M14 melanoma) [µM] | GI50 (MOLT-4 leukemia) [µM] | TGI (MOLT-4 leukemia) [µM] | GI50 (NCI/ADR-RES ovarian) [µM] | TGI (NCI/ADR-RES ovarian) [µM] | GI50 (SR leukemia) [µM] | TGI (SR leukemia) [µM] | GI50 (SW-620 colon) [µM] | TGI (SW-620 colon) [µM] | GI50 (UACC-257 melanoma) [µM] | TGI (UACC-257 melanoma) [µM]
C=C(C)[C@@H]1CC[C@]2(COC(=O)c3ccccc3C(=O)O)CC[C@]3(C)[C@H](CC[C@@H]4[C@@]5(C)CC[C@H](OC(=O)c6ccccc6C(=O)O)C(C)(C)[C@@H]5CC[C@]43C)[C@@H]12 | 29.8 | > 100 | 31.3 | > 100 | 31.7 | > 100 | 8.47 | > 100 | 44.9 | > 100 | 56.7 | > 100 | 67.6 | > 100 | 27.3 | 74.1 | 97.7 | > 100 | 71.3 | > 100
O=C1c2ccccc2-c2c1c1ccc3ccccc3c1n2-c1ccccc1 | 36.5 | 93.5 | > 100 | > 100 | > 100 | > 100 | 21.3 | > 100 | 94.1 | > 100 | > 100 | > 100 | 20.7 | 58.5 | 41.9 | > 100 | 59.5 | > 100 | 64.8 | > 100
CCCCc1n(Cc2ccc3ccccc3n2)cc[n+]1Cc1ccc2ccccc2c1 | 1.69 | 11 | 5.07 | 18.1 | 0.359 | 2.36 | 0.715 | 2.11 | 0.769 | 2.45 | 1.06 | 3.61 | 24.2 | > 100 | 0.456 | 1.95 | 1.31 | 4.75 | 0.438 | 1.62
N#Cc1cc2c(=S)[nH]c(=S)[nH]c2nc1SCc1ccccc1 | 32.3 | > 100 | 33.4 | > 100 | 36.9 | > 100 | 29.2 | > 100 | 58.2 | > 100 | 43.3 | > 100 | 28.1 | > 100 | 41.3 | > 100 | 48.9 | > 100 | 47.4 | > 100
O=C(Oc1c(Cl)c(Cl)c(Cl)c(Cl)c1Cl)C1CCCN1C(=O)OCc1ccccc1 (stereo not given) | 3.97 | 18.2 | 3.08 | 11.7 | 3.43 | 19.3 | 3.62 | 13 | 4 | 16.4 | 3.1 | 9.07 | 3.15 | 11.2 | 3.82 | 15.7 | 3.44 | 14.4 | 4.29 | 17.7
COC(=O)[C@]12CC[C@@H](C)[C@H](C)[C@@H]1C1=CC[C@@H]3[C@@]4(C)C(C=O)=C[C@@](C)(COC(=O)c5ccco5)C4=CC[C@@]3(C)[C@]1(C)CC2 | 3.28 | 14 | 1.91 | 4.09 | 3.7 | 17.3 | 3.27 | 19.9 | 0.104 | 6.93 | 2.11 | 7.1 | 4.84 | 26.1 | 2.12 | 6.66 | 3.1 | 11.2 | 0.108 | 0.65
COC(=O)C(Br)(C(=O)OC)C(Br)C(Br)C(Br)c1ccccc1 (stereo not given) | 16.9 | 33 | 2.15 | 6.15 | 2.95 | 9.93 | 7.83 | 21 | 2.47 | 6.2 | 4.24 | 19.7 | 3.28 | 9.99 | 2.8 | 9.71 | 1.64 | 3.07 | 1.88 | 4.4
COc1ccc2cn3c4ccc(O)cc4[nH]c(=O)c3c2c1 | 0.231 | 18.1 | 0.0438 | 13.2 | 0.0516 | 4.48 | 0.0846 | 14.9 | 0.08 | 13.7 | 0.308 | 16.7 | 0.0675 | 14.2 | 0.0556 | 3.87 | 0.047 | 13.7 | 8.08 | 24.2
Cc1nc2sc(C(=O)Nc3cccc(Cl)c3C)c(N)c2cc1C(O)c1ccccc1 (stereo not given) | 0.0614 | > 50.1 | 0.033 | 10.5 | 0.0302 | > 48.6 | 0.0372 | 5.22 | 0.0291 | 13.1 | 0.0673 | 19.7 | 0.0318 | 1.64 | 0.021 | 16.6 | 0.0331 | 15.4 | 1.27 | 22.9
